# Measured values taken from publication PMC3030572, “Antamanide, a Derivative of Amanita phalloides, Is a Novel Inhibitor of the Mitochondrial Permeability Transition Pore” (PLoS ONE, 2011).
# Entries after “also recorded” stand apart in the source; their conditions may differ.
# Tests used:
# [1] = test system: mitochondrial permeability transition pore (PTP); format: biochemical, mouse
# Protocol: A, chemical structure of AA. B, D, Ca^2+ retention capacity (CRC) either in phosphate (Pi) buffer (B) or in arsenate (Asi) buffer (D). Calcium Green-5N fluorescence is reported as arbitrary units on the y axis.
# (§1) Mitochondria were isolated either from livers of C57BL/6 mice through sequential centrifugations, or from cells, as described. To obtain mitochondria, cells were disrupted with a glass-Teflon potter in a buffer composed by 250 mM sucrose, 10 mM Tris-HCl, 0.1 mM EGTA-Tris, pH 7.4. Nuclei and plasma membrane fractions were separated by a first mild centrifugation (700× g, 10 min), and mitochondria were then spinned down at a higher speed (7000× g, 10 min). All procedures were carried out at 0–4°C.
# (§2) PTP opening was detected as a fluorescence increase.
# [2] = test system: mitochondrial permeability transition pore (PTP), wild-type fibroblasts; format: cell-based, mouse; details: Figure 4C
# Protocol: A, B, PTP opening of digitonized wild-type (A) or CyP-D knock-out (B) fibroblasts was measured with the whole-cell CRC assay. Experiments were started by the addition of digitonized cells (not shown) followed by pulses of Ca^2+ (5 µM each) and are plotted as in Figure 1B. The use of AA is shown with a red trace. Alamethicin (Alm, 1 µM) was added at the end of each measurement to fully release Ca^2+ from intracellular stores. […] D, isomerase activity assay (see Materials and Methods): after addition of the substrate peptide N-succinyl-Ala-Ala-cis-trans-Pro-Phe-p-nitroanilide (arrow), chimotrypsin cleaves the trans-isomeric form, causing a rise in absorbance.
# The Ca^2+ retention capacity (CRC) assay was used to assess PTP opening following trains of Ca^2+ pulses and measured fluorimetrically at 25°C in the presence of the Ca^2+ indicator Calcium Green-5N (1 µM; λexc: 505 nm; λem: 535 nm; Molecular Probes). […] Digitonin was then eliminated and the number of cells carefully assessed before starting each experiment. […] Cells or mitochondria were then exposed to Ca^2+ spikes, and fluorescence drops were used to assess mitochondrial Ca^2+ uptake. PTP opening was detected as a fluorescence increase. Calcium Green-5N fluorescence was measured either with a fluorescence spectrometer LS50B (Perkin Elmer, Waltham, MA) or with a Fluoroskan Ascent FL fluorimeter (Thermo Electron Corporation, Waltham, MA).
# [3] = test system: mitochondrial permeability transition pore (PTP), HeLa cells; assay: CRC assay, mitochondria isolated from HeLa cells; format: biochemical, human; details: Figure 5A
# Protocol: Figure 5 Effect of AA on mitochondrial potential of HeLa cells. A, bar graphs report the ratio between the CRC detected in the presence (CRC) and absence (CRC0) of increasing concentrations of AA in mitochondria from HeLa cells. […] B,C cytofluorimetric analysis of mitochondrial depolarization. HeLa cells were incubated with the TMRM probe and treated for 1 hour with the reported concentrations of either clotrimazole (CTM) or TAT-HK peptide. An unrelated TAT-linked peptide (TAT-Ctr) is used as a negative control. […] Bar graphs in B display the percentage of cells with depolarized mitochondria (mean±SD, n = 4). […] Histograms in C report a representative experiment, where cells with polarized and depolarized mitochondria are indicated in red and grey, respectively.
# as §1, §2
# [4] = test system: mitochondria isolated from wild-type fibroblasts; assay: mitochondrial respiration assay, wild-type fibroblast mitochondria; format: biochemical, mouse; details: 8 µM AA; polarography, Clark electrode, 25°C; repeated at least three times
# Protocol: Figure 3 Effect of AA on respiration and PTP opening in mitochondria of wild-type or CyP-D knock-out mouse fibroblasts. A, upper part: Western blot analysis assessing CyP-D expression in fibroblasts obtained from either wild-type or CyP-D knock-out mice; HKII was utilized to verify protein load; lower part: representative experiment showing oxygen consumption as assessed by polarography (see Methods) in mitochondria isolated from wild-type fibroblasts in the absence (a) or presence (b) of 8 µM AA. Experiments were started by adding 0.6 mg of mitochondria (Mito), followed by 100 µM ADP and 50 µM 2,4-dinitrophenol (DNP) (arrows). Each experiment was repeated at least three times. Oxygen consumption is reported as percentage of initial value on the y axis. B, bar graphs report the ratio between the CRC detected in the presence (CRC) and absence (CRC0) of increasing concentrations of AA, in mitochondria from either wild-type fibroblasts (left) or CyP-D knock-out fibroblasts (right). […] Results are mean±SD of at least 4 experiments.
# Mitochondrial oxygen consumption was measured polarographically at 25°C with a Clark oxygen electrode (Yellow Springs Instruments, OH, USA). Mitochondria (0.6 mg per experimental point) were incubated in a solution of 130 mM KCl, 10 mM Tris-Mops, 1 mM Pi-Tris, 20 mM EGTA-Tris and 2 µM rotenone/5 mM succinate to assay basal respiration (state 4). […]
# [5] = test system: mouse liver mitochondria; assay: mitochondrial respiration assay, mouse liver mitochondria; format: biochemical; details: polarography, Clark electrode, 25°C; data not shown
# Protocol: Mitochondrial oxygen consumption was measured polarographically at 25°C with a Clark oxygen electrode (Yellow Springs Instruments, OH, USA). Mitochondria (0.6 mg per experimental point) were incubated in a solution of 130 mM KCl, 10 mM Tris-Mops, 1 mM Pi-Tris, 20 mM EGTA-Tris and 2 µM rotenone/5 mM succinate to assay basal respiration (state 4). ADP (200 µM) was subsequently added to measure state 3 respiration, followed by the uncoupling agent dinitrophenol (100 µM) to assess the maximal respiration rate.
# [6] = test system: membrane permeabilization by phalloidin; assay: membrane permeabilization by phalloidin; format: cell-based; details: data not shown
# [7] = test system: HeLa cells; format: cell-based, human; details: clotrimazole; data not shown
# [8] = test system: immunosuppressant; design: method as in PMID 1494502, PMID 8441706; details: ref [10], [11]; cited from earlier work
# Source text: Antamanide (AA) is a monocyclic, homodetic decapeptide isolated from the poisonous mushroom Amanita phalloides. […] Little is known about the biochemical mechanisms underlying these diverse bioactivities. […] The CyP chaperone activity, i.e. the isomerization to the cis form of the peptidyl bonds preceding each proline, is involved in folding and association processes required for proteins to perform thei ...
# [9] = test system: phallotoxins and amatoxins; details: cited from earlier work
# Source text: Antamanide (AA) is a monocyclic, homodetic decapeptide isolated from the poisonous mushroom Amanita phalloides. […] Little is known about the biochemical mechanisms underlying these diverse bioactivities.
substance,measurement,setting,value
Antamanide [AA],CRC/CRC0: difference from CRC of untreated mitochondria,"[1]; AA at various concentrations, Figure 1C and D, mean±SD of at least 4 experiments, Student's t test",significant difference (Student's t test analysis; *: p<0.01)
same,concentration at which the effect reaches a plateau (concentration-response CRC),"[1]; Figure 2B, mean±SD of at least 4 experiments",about 20 µM
same,PTP inhibition in arsenate,"[1]; arsenate (Asi) buffer, Figure 1B, D",abrogated in the presence of arsenate; also recorded: act as pore inhibitors only in Pi buffer
same,additivity of PTP inhibition with CsA,"[1]; combination with CsA, Figure 1C",not additive with that of CsA
same,additivity of PTP inhibition with Ub0,"[1]; combination with Ub0, Figure 1C, t test #: p<0.01",AA did increase inhibition by Ub0; also recorded: additive with that of Ub0
same,PTP inhibition (CRC),"[1]; phosphate-containing medium, Calcium Green-5N, 25°C","AA inhibited pore opening, similar to the PTP inhibitors CsA or Ubiquinone 0"
same,PTP inhibition (CRC/CRC0),"[2]; digitonized wild-type cells, mean±SD of at least 4 experiments",display an inhibitory effect on the PTP in wild-type
same,CRC/CRC0: difference from CRC of untreated mitochondria,"[2]; wild-type fibroblasts, Student's t test",significant difference (Student's t test analysis; *: p<0.01)
same,CRC/CRC0: difference from CRC of untreated mitochondria,"[3]; AA at various concentrations, mean±SD of at least 4 experiments, Student's t test",significant difference (Student's t test analysis; *: p<0.01)
same,additivity of PTP inhibition with CsA,[3]; combination with CsA,the effect of AA did not add to that of CsA; also recorded: not additive
same,PTP inhibition (CRC),[3]; mitochondria from HeLa cells,AA inhibited the pore also in mitochondria isolated from HeLa cells
same,oxygen consumption,[4],unaffected
same,oxygen consumption,[5],unaffected
same,inhibition of membrane permeabilization by phalloidin,[6],inhibits membrane permeabilization by phalloidin
same,inhibition of clotrimazole-induced cell death,[7],inhibited the process
same,immunosuppressant activity,[8],acts as an immunosuppressant
same,antidote activity,[9]; ref [2],strong antidote activity against phallotoxins and amatoxins
same,abrogation of toxic effects of phalloidin,"[9]; ref [8], [9]",abrogates the toxic effects of the phallotoxin phalloidin
